# Test results from ChEMBL document CHEMBL3621060, “Synthesis and anticancer activities of novel 8-azapurine carbocyclic nucleoside hydrazones” (Bioorg Med Chem Lett, 2015).
# Assays:
# [1] = Anticancer activity against human HuH7 cells assessed as inhibition of cell growth at 10 uM incubated for 4 days by CCK8 assay; assay type: functional; settings: Huh-7, 96 h, read-out: GI
# A549 = assay: Anticancer activity against human A549 cells assessed as inhibition of cell growth at 10 uM incubated for 4 days by CCK8 assay; assay type: functional; settings: A549, 96 h, read-out: GI
# [2] = Anticancer activity against human HuH7 cells assessed as inhibition of cell growth incubated for 4 days by CCK8 assay; assay type: functional, cell-based; settings: Huh-7, 96 h
# P388 = assay: Cytotoxicity against mouse P388 cells; assay type: functional; settings: read-out: ED50 (the source's name)
Structure (SMILES),inhibition of growth at 10 µM [1] [%],inhibition of growth at 10 µM (A549) [%],IC50 [2] [µM],EC50 (P388) [µM]
CCCSc1nc(N/N=C/c2ccccc2)c2nnn([C@@H]3C[C@H](O)[C@@H](O)[C@H]3O)c2n1,20.1,22.9,–,–
CCCSc1nc(N/N=C/c2ccc(F)c(F)c2)c2nnn([C@@H]3C[C@H](O)[C@@H](O)[C@H]3O)c2n1,31.5,26.9,–,–
CCCSc1nc(N/N=C/c2ccccc2O)c2nnn([C@@H]3C[C@H](O)[C@@H](O)[C@H]3O)c2n1,34.5,24.3,–,–
CCCSc1nc(N/N=C/c2cccc(O)c2)c2nnn([C@@H]3C[C@H](O)[C@@H](O)[C@H]3O)c2n1,36.5,21.4,–,–
CCCSc1nc(N/N=C/c2ccc(O)cc2)c2nnn([C@@H]3C[C@H](O)[C@@H](O)[C@H]3O)c2n1,43.8,32.3,–,–
CCCSc1nc(N/N=C/c2ccc(O)cc2O)c2nnn([C@@H]3C[C@H](O)[C@@H](O)[C@H]3O)c2n1,38.3,33,–,–
CCCSc1nc(N/N=C/c2ccccc2OC)c2nnn([C@@H]3C[C@H](O)[C@@H](O)[C@H]3O)c2n1,43.8,31.6,–,–
CCCSc1nc(N/N=C/c2ccc(OC)cc2)c2nnn([C@@H]3C[C@H](O)[C@@H](O)[C@H]3O)c2n1,57.3,69.2,–,–
CCCSc1nc(N/N=C/c2ccc(OC)c(OC)c2)c2nnn([C@@H]3C[C@H](O)[C@@H](O)[C@H]3O)c2n1,26.9,28.9,–,–
CCCSc1nc(N/N=C/c2ccccc2Cl)c2nnn([C@@H]3C[C@H](O)[C@@H](O)[C@H]3O)c2n1,37.7,30.5,–,–
CCCSc1nc(N/N=C/c2ccc(Cl)cc2)c2nnn([C@@H]3C[C@H](O)[C@@H](O)[C@H]3O)c2n1,47.8,34.2,–,–
CCCSc1nc(N/N=C/c2ccc(Cl)cc2Cl)c2nnn([C@@H]3C[C@H](O)[C@@H](O)[C@H]3O)c2n1,51.2,41.6,–,–
CCCSc1nc(N/N=C/c2cccc([N+](=O)[O-])c2)c2nnn([C@@H]3C[C@H](O)[C@@H](O)[C@H]3O)c2n1,58.5,68,–,–
CCCSc1nc(N/N=C/c2ccc([N+](=O)[O-])cc2)c2nnn([C@@H]3C[C@H](O)[C@@H](O)[C@H]3O)c2n1,68,67.6,11.7,–
CCCSc1nc(N/N=C/c2ccccn2)c2nnn([C@@H]3C[C@H](O)[C@@H](O)[C@H]3O)c2n1,52.5,38.6,–,–
CCCSc1nc(N/N=C/c2cccs2)c2nnn([C@@H]3C[C@H](O)[C@@H](O)[C@H]3O)c2n1,50,38.8,–,–
Nc1ncnc2c1nnn2[C@@H]1C[C@H](CO)[C@H](O)[C@H]1O,–,–,–,0.38
O=c1[nH]cc(F)c(=O)[nH]1 [FLUOROURACIL],78.7,64.5,–,–
